Assay results as given in patent publication US9056843B2, “Trifluoromethyl-oxadiazole derivatives and their use in the treatment of disease” (NOVARTIS AG, priority 2011, dated 2015).

What was measured:
Format in all cases: biochemical
Human recombinant HDAC4 = Human recombinant HDAC4 (Homo sapiens (Human), UniProt P56524); experiment: Test 2: HDAC4 assay (fluorogenic substrate, 5 μM acetyl-Gly-Ala-Lys(ε-trifluoroacetyl)-AMC); conditions: Test 2 (values without asterisk)
Procedure: Test 2: HDAC4 Assay Description
(§1) Control wells with HDAC4 only (positive control) and without HDAC4 (negative control) were included on the microplate. Bovine trypsin (4.5 μl of a 300 nM solution) was added and the plate incubated for additional 15 minutes at room temperature. The plate was placed in a fluorescence microplate reader, and read at an excitation wavelength of 360 nm and an emission wavelength of 450 nm with a 10 nm bandpath. Fluorescence values for all wells containing HDAC4 (positive control and wells with test compound) were corrected by subtracting negative control fluorescence values, and IC50 values were calculated by fitting the dose-response curves to a 4-parameter logistic function.

[1] = target: Human recombinant full length HDAC1 (Homo sapiens (Human), UniProt Q13547); experiment: Test 3: HDAC1 assay; conditions: substrate 5 μM acetyl-Gly-Ala-Lys(acetyl)-AMC
Procedure: as §1
Test 3: HDAC1 Assay Description
A similar assay procedure as described in Test 2 was used for HDAC1. Human recombinant full length HDAC1 expressed in a baculovirus expression system was purchased from BPS BioSciences (San Diego, Calif., U.S.A.). The substrate used in the […] assay was 5 μM of acetyl-Gly-Ala-Lys(acetyl)-AMC.

[2] = target: Human recombinant full length HDAC6 (Homo sapiens (Human), UniProt Q9UBN7); experiment: Test 4: HDAC6 assay; conditions: Test 4; substrate 5 μM acetyl-Gly-Ala-Lys(acetyl)-AMC
Procedure: as §1
Test 4: HDAC6 Assay Description
A similar assay procedure as described in Test 2 was used for HDAC6. Human recombinant full length HDAC6 expressed in a baculovirus expression system was purchased from BPS BioSciences (San Diego, Calif., U.S.A.). The substrate used in the […] assay was 5 μM of acetyl-Gly-Ala-Lys(acetyl)-AMC.

Sequence of Human recombinant full length HDAC6 (Q9UBN7 whole entry): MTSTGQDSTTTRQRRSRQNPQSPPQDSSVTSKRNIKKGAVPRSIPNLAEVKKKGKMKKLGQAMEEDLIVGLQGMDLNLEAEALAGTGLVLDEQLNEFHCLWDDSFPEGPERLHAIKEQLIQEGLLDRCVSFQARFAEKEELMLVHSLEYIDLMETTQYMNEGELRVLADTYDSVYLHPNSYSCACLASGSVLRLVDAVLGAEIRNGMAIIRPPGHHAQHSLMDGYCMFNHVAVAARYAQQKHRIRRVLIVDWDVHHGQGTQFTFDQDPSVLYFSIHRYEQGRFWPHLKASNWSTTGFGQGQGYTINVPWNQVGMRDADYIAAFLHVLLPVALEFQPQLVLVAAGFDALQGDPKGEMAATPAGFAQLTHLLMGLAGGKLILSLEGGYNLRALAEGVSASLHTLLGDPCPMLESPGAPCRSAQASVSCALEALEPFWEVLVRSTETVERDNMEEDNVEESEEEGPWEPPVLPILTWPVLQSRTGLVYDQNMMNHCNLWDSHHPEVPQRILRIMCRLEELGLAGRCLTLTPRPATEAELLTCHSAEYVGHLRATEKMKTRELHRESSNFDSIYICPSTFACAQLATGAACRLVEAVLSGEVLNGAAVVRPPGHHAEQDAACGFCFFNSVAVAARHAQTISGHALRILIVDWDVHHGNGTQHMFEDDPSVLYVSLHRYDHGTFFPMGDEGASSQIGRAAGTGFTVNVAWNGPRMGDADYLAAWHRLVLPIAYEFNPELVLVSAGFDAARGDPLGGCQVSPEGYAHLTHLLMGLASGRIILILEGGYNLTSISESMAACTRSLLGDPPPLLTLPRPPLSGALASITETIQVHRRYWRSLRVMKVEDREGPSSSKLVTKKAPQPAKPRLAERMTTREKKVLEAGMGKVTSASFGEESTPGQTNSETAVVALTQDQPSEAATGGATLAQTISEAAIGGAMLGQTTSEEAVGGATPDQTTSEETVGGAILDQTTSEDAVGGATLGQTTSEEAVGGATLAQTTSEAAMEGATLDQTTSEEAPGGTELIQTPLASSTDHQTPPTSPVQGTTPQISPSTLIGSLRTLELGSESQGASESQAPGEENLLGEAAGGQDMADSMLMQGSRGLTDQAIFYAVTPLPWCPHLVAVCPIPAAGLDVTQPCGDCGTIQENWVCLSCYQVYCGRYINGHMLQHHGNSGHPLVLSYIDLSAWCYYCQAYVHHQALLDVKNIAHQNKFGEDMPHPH
Sequence of Human recombinant full length HDAC1 (Q13547 whole entry): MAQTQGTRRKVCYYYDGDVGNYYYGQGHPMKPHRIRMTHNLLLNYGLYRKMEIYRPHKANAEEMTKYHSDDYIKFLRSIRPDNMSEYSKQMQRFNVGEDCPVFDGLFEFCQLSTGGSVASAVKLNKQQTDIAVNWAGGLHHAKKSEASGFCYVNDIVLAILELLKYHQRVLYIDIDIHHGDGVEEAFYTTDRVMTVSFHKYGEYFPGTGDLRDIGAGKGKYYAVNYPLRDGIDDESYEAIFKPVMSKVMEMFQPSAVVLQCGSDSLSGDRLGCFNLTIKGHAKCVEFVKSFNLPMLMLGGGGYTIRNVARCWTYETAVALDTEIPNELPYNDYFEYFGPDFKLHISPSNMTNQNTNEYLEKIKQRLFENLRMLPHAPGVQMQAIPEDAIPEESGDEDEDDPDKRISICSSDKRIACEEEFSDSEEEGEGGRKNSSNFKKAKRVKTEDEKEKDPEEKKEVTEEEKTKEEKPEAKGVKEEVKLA
Sequence of Human recombinant HDAC4 (P56524 2-1084): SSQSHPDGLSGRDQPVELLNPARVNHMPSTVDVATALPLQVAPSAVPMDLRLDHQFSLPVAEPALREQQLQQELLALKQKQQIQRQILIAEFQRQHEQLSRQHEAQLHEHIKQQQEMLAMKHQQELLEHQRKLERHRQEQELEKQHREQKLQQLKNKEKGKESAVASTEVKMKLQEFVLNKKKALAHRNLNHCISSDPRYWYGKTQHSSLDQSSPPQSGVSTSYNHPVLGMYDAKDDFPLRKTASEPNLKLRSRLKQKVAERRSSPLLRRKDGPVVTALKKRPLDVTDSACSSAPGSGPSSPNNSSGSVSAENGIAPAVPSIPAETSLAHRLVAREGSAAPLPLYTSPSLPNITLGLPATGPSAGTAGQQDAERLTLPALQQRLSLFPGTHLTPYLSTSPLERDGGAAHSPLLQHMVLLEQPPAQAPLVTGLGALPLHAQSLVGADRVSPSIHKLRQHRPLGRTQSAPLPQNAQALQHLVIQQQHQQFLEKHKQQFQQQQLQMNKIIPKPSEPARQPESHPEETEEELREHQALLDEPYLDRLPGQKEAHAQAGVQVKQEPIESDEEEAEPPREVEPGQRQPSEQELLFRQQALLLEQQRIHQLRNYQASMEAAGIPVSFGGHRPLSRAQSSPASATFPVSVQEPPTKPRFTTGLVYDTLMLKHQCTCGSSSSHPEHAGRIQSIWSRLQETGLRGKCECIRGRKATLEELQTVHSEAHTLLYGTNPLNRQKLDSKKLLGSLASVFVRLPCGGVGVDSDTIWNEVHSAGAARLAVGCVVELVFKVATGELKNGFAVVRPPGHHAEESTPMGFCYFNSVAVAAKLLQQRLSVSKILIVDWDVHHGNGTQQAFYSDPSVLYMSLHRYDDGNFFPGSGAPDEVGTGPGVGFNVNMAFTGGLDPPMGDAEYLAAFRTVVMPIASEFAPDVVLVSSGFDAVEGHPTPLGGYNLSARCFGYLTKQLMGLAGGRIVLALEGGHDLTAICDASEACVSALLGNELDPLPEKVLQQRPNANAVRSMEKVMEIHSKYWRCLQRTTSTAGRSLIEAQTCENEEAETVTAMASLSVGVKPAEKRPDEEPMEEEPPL

IC50 (Human recombinant HDAC4) [nM] | IC50 [1] [µM] | IC50 [2] [µM] | Structure (SMILES)
36 | > 10 | > 10 | CN(C)CC(C)(C)NC(=O)c1ccc(-c2noc(C(F)(F)F)n2)cc1 [Example 119, N-(1-(dimethylamino)-2-methylpropan-2-yl)-4-(5-(trifluoromethyl)-1,2,4-oxadiazol-3-yl)benzamide]
800 | > 10 | > 10 | O=C(NC1CCCNC1)c1ccc(-c2noc(C(F)(F)F)n2)cc1 (stereo not drawn) [Example 79, N-(piperidin-3-yl)-4-(5-(trifluoromethyl)-1,2,4-oxadiazol-3-yl)benzamide]
780 | > 10 | 3.3 | O=C(NCc1ccccc1)c1ccc(-c2noc(C(F)(F)F)n2)cc1 [Example 46, N-benzyl-4-(5-(trifluoromethyl)-1,2,4-oxadiazol-3-yl)benzamide]
150 | > 10 | 3.9 | O=C(NC1CCNCC1)c1ccc(-c2noc(C(F)(F)F)n2)cc1 [Example 76, N-(piperidin-4-yl)-4-(5-(trifluoromethyl)-1,2,4-oxadiazol-3-yl)benzamide]
26 | > 10 | > 10 | O=C(N[C@@H]1CCNC1)c1ccc(-c2noc(C(F)(F)F)n2)cc1 [Example 86, (R)—N-(pyyrrolidin-3-yl)-4-(5-(trifluoromethyl)-1,2,4-oxadiazol-3-yl)benzamide]
360 | > 10 | 6.4 | CN(C)CCNS(=O)(=O)c1ccc(-c2noc(C(F)(F)F)n2)cc1 [Example 98, N-(2-(dimethylamino)ethyl)-4-(5-(trifluoromethyl)-1,2,4-oxadiazol-3-yl)benzenesulfonamide]
360 | 8.8 | 1.8 | O=C(NCCNc1ccccc1)c1ccc(-c2noc(C(F)(F)F)n2)cc1 [Example 158, N-(2-(phenylamino)ethyl)-4-(5-(trifluoromethyl)-1,2,4-oxadiazol-3-yl)benzamide]
140 | > 10 | > 10 | O=C(Nc1ccnc(O)c1)c1ccc(-c2noc(C(F)(F)F)n2)cc1 [Example 72, N-(2-hydroxypyridin-4-yl)-4-(5-(trifluoromethyl)-1,2,4-oxadiazol-3-yl)benzamide]
900 | > 10 | > 10 | CCN(C)C(=O)c1ccc(-c2noc(C(F)(F)F)n2)cc1 [Example 14, N-ethyl-N-methyl-4-(5-(trifluoromethyl)-1,2,4-oxadiazol-3-yl)benzamide]
400 | > 10 | > 10 | O=C(c1ccc(-c2noc(C(F)(F)F)n2)cc1)N1CCCCC1 [Example 33, Piperidin-1-yl(4-(5-(trifluoromethyl)-1,2,4-oxadiazol-3-yl)phenyl)methanone]
1.2 | 5.8 | 3.3 | CCCN(C)C[C@@H](C)NC(=O)c1ccc(-c2noc(C(F)(F)F)n2)cc1F [Example 143, (R)-2-fluoro-N-(1-(methyl(propyl)amino)propan-2-yl)-4-(5-(trifluoromethyl)-1,2,4-oxadiazol-3-yl)benzamide]
2700 | > 10 | > 10 | CN1CCN(C(=O)c2ccc(-c3noc(C(F)(F)F)n3)cc2)CC1 [Example 36, (4-methylpiperazin-1-yl)(4-(5-(trifluoromethyl)-1,2,4-oxadiazol-3-yl)phenvyl)methanone]
4200 | > 10 | > 10 | O=C(c1ccc(-c2noc(C(F)(F)F)n2)cc1)N1CCN(c2ccccc2)CC1 [Example 42, (4-phenylpiperazin-1-yl)(4-(5-(trifluoromethyl)-1,2,4-oxadiazol-3-yl)phenyl)methanone]
53 | > 10 | 6.1 | N#Cc1cc(NC(=O)c2ccc(-c3noc(C(F)(F)F)n3)cc2)ccn1 [Example 73, N-(2-cyanopyridin-4-yl)-4-(5-(trifluoromethyl)-1,2,4-oxadiazol-3-yl)benzamide]
6700 | > 10 | > 10 | O=C(Nc1ccccc1)c1ccc(-c2noc(C(F)(F)F)n2)cc1 [Example 35, N-phenyl-4-(5-(trifluoromethyl)-1,2,4-oxadiazol-3-yl)benzamide]
290 | > 10 | 0.58 | O=S(=O)(Nc1ccccc1F)c1ccc(-c2noc(C(F)(F)F)n2)cc1 [Example 111, N-(2-fluorophenyl)-4-(5-(trifluoromethyl)-1,2,4-oxadiazol-3-yl)benzenesulfonamide]

IC50 (Human recombinant HDAC4) [nM] | IC50 [1] [µM] | IC50 [2] [µM] | Structure (SMILES)
1500 | > 10 | 6 | O=C(c1ccc(-c2noc(C(F)(F)F)n2)cc1)N1CCCC1 [Example 23, Pyrrolidin-1-yl(4-(5-(trifluoromethyl)-1,2,4-oxadiazol-3-yl)phenyl)methanone]
190 | > 10 | 8.6 | O=C(Nc1ccnc(C(F)(F)F)c1)c1ccc(-c2noc(C(F)(F)F)n2)cc1 [Example 74, 4-(5-(Trifluoromethyl)-1,2,4-oxadiazol-3-yl)-N-(2-(trifluoromethyl)pyridin-4-yl)benzamide]
820 | > 10 | 9.1 | CN(C)CCCN(C)S(=O)(=O)c1ccc(-c2noc(C(F)(F)F)n2)cc1 [Example 112, N-(3-(dimethylamino)propyl)-N-methyl-4-(5-(trifluoromethyl)-1,2,4-oxadiazol-3-yl)benzenesulfonamide]
2800 | > 10 | > 10 | CC(C)(C)OC(=O)N1CCN(C(=O)c2ccc(-c3noc(C(F)(F)F)n3)cc2)CC1 [Example 55, Tert-butyl 4-(4-(5-(trifluoromethyl)-1,2,4-oxadiazol-3-yl)benzoyl)piperazine-1-carboxylate]
26 | > 10 | > 10 | CC(CN(C)C)NC(=O)c1ccc(-c2noc(C(F)(F)F)n2)cc1 (stereo not drawn) [Example 53, N-(1-(dimethylamino)propan-2-yl)-4-(5-(trifluoromethyl)-1,2,4-oxadiazol-3-yl)benzamide]
730 | > 10 | 5.7 | COCCCNC(=O)c1ccc(-c2noc(C(F)(F)F)n2)cc1 [Example 21, N-(3-methoxyypropyl)-4-(5-(trifluoromethyl)-1,2,4-oxadiazol-3-yl)benzamide]
200 | > 10 | 2 | O=S(=O)(Nc1ccc(Cl)cc1)c1ccc(-c2noc(C(F)(F)F)n2)cc1 [Example 110, N-(4-chlorophenyl)-4-(5-(trifluoromethyl)-1,2,4-oxadiazol-3-yl)benzenesulfonamide]
350 | > 10 | > 10 | NC1CCCCC1NC(=O)c1ccc(-c2noc(C(F)(F)F)n2)cc1 (stereo not drawn) [Example 77, N-(2-aminocyclohexyl)-4-(5-(trifluoromethyl)-1,2,4-oxadiazol-3-yl)benzamide]
13 | 9.05 | 3 | C[C@H](CN1CCCCC1)NC(=O)c1ccc(-c2noc(C(F)(F)F)n2)cc1F [Example 129, (R)-2-fluoro-N-(1-(piperidin-1-yl)propan-2-yl)-4-(5-(trifluoromethyl)-1,2,4-oxadiazol-3-yl)benzamide]
80 | > 10 | 0.7 | Cc1ccccc1NS(=O)(=O)c1ccc(-c2noc(C(F)(F)F)n2)cc1 [Example 103, N-o-tolyl-4-(5-trifluoromethyl-[1,2,4]oxadiazol-3-yl)-benzenesulfonamide]
34 | > 10 | > 10 | C[C@H](CN(C)C)NC(=O)c1ccc(-c2noc(C(F)(F)F)n2)cc1 [Example 81, (R)—N-(1-(dimethylamino)propan-2-yl)-4-(5-(trifluoromethyl)-1,2,4-oxadiazol-3-yl)benzamide]
15 | > 10 | > 10 | CC(C)[C@@H](CN(C)C)NC(=O)c1ccc(-c2noc(C(F)(F)F)n2)cc1 [Example 83, (S)—N-(1-(dimethylamino)-3-methylbutan-2-yl)-4-(5-(trifluoromethyl)-1,2,4-oxadiazol-3-yl)benzamide]
110 | > 10 | 7.2 | CN1CCC[C@@H](NC(=O)c2ccc(-c3noc(C(F)(F)F)n3)cc2)C1 [Example 154, (R)—N-(1-methylpiperidin-3-yl)-4-(5-(trifluoromethyl)-1,2,4-oxadiazol-3-yl)benzamide]
180 | > 10 | > 10 | CC(CN(C)C)N(C)C(=O)c1ccc(-c2noc(C(F)(F)F)n2)cc1F (stereo not drawn) [Example 144, N-(1-(dimethylamino)propan-2-yl)-2-fluoro-N-methyl-4-(5-(trifluoromethyl)-1,2,4-oxadiazol-3-yl)benzamide]
1350 | > 10 | 9.9 | CN(C)CCN(C)S(=O)(=O)c1ccc(-c2noc(C(F)(F)F)n2)cc1 [Example 99, N-(2-(dimethylamino)ethyl)-N-methyl-4-(5-(trifluoromethyl)-1,2,4-oxadiazol-3-yl)benzenesulfonamide]
